Each structure is given as a SMILES string.

The results in this text go back to US10766869B2, “Triazoles for the treatment of demyelinating dieases” (Vertex Pharmaceuticals Incorporated, priority 2015, dated 2020).

This assay deals with primary rat mixed cortical cells. The assay is described as follows: In vitro myelination assay (MBP positive myelin strands, fold myelin pixels above background). It counts as cell-based. Particulars: Rattus norvegicus, relative to baseline of no added compound; for fold induction at 1 µM: 1.0 μM compound, read-out: Fold myelin pixels above background, 1.0 μM; for fold induction at 10 µM: 10.0 μM compound, read-out: Fold myelin pixels above background, 10.0 μM. The gist of the method:
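P1 rat cortical cells (neurons, OPCs, oligodendrocytes, astrocytes, microglia) were cultured 14 days at 37 °C with compound, with half-medium changes containing 1× compound on days 6 and 10. Fixed cells were immunostained for MBP and imaged at 10×. Total MBP myelin pixels per well were expressed as fold above no-compound baseline at 1.0 μM and 10.0 μM.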

For `Cc1cc(Nc2ncn(-c3ccc(F)c(F)c3)n2)cc(C2CN(C3COC3)C2)c1` [Compound 301, 1-(3,4-difluorophenyl)-N-[3-methyl-5-[1-(oxetan-3-yl)azetidin-3-yl]phenyl]-1,2,4-triazol-3-amine], the fold induction at 1 µM lay in the range of 1000 to 10000 and the fold induction at 10 µM lay in the range of 100 to 1000.
With `Cc1cc(-n2cnc(Nc3cc(C4CC4)cc(N4CCN(C5COC5)CC4)c3)n2)ncn1` [Compound 302, N-[3-cyclopropyl-5-[4-(oxetan-3-yl)piperazin-1-yl]phenyl]-1-(6-methylpyrimidin-4-yl)-1,2,4-triazol-3-amine], the fold induction at 1 µM was 1000 to 10000 and the fold induction at 10 µM was 1000 to 10000.
As to `CCc1cc(Nc2ncn(-c3ccc(OC(F)(F)F)cc3)n2)cc(N2CCN(C3COC3)CC2)c1` [Compound 303, N-[3-ethyl-5-[4-(oxetan-3-yl)piperazin-1-yl]phenyl]-1-[4-(trifluoromethoxy)phenyl]-1,2,4-triazol-3-amine], the fold induction at 1 µM lay within 1 to 10 and the fold induction at 10 µM lay within 1 to 10.
`Cc1cc(Nc2ncn(-c3cc(F)cc(F)c3)n2)cc(O[C@H]2CCN(C3COC3)C2)c1` [Compound 304, 1-(3,5-difluorophenyl)-N-[3-methyl-5-[(3S)-1-(oxetan-3-yl)pyrrolidin-3-yl]oxy-phenyl]-1,2,4-triazol-3-amine]: the fold induction at 1 µM lay within 100 to 1000 and the fold induction at 10 µM was not above 1.
Consider `c1ccc(-n2cnc(Nc3cc(C4CC4)cc(N4CCOCC4)c3)n2)cc1` [Compound 305, N-(3-cyclopropyl-5-morpholino-phenyl)-1-phenyl-1,2,4-triazol-3-amine], for which the fold induction at 1 µM was in the range of 100 to 1000 and the fold induction at 10 µM is not above 1.
`Cc1cc(Nc2ncn(-c3ccccc3)n2)cc(N2CC(C)OC(C)C2)c1` (stereo not shown) [Compound 306, N-[3-(2,6-dimethylmorpholin-4-yl)-5-methyl-phenyl]-1-phenyl-1,2,4-triazol-3-amine]: the fold induction at 1 µM was not above 1 and the fold induction at 10 µM is not above 1.
With `Cc1cc(N2CCOCC2)cc(Nc2ncn(-c3ccccn3)n2)c1F` [Compound 307, N-(2-fluoro-3-methyl-5-morpholino-phenyl)-1-(2-pyridyl)-1,2,4-triazol-3-amine], the fold induction at 1 µM is 1 to 10 and the fold induction at 10 µM is 10 to 100.
On to `Cc1cc(Nc2ncn(-c3ccccc3)n2)cc(C2CCNCC2)c1` [Compound 308, N-[3-methyl-5-(4-piperidyl)phenyl]-1-phenyl-1,2,4-triazol-3-amine], for which the fold induction at 1 µM is 1000 to 10000 and the fold induction at 10 µM is not above 1.
As for `Cc1cc(Nc2ncn(-c3ccccc3)n2)cc(NC2CCN(C3COC3)C2)c1` (stereo not shown) [Compound 309, 5-methyl-N1-[1-(oxetan-3-yl)pyrrolidin-3-yl]-N3-(1-phenyl-1,2,4-triazol-3-yl)benzene-1,3-diamine], the fold induction at 1 µM was in the range of 1000 to 10000 and the fold induction at 10 µM was not above 1.
The like results for `COc1cc(Nc2ncn(-c3cc(F)cc(F)c3)n2)cc(N2CCN(C3COC3)CC2)c1` [Compound 310, 1-(3,5-difluorophenyl)-N-[3-methoxy-5-[4-(oxetan-3-yl)piperazin-1-yl]phenyl]-1,2,4-triazol-3-amine] were, in that order, 1000 to 10000 and 100 to 1000.
As for `Cc1cc(Nc2ncn(-c3cc(F)cc(F)c3)n2)cc(N2CCN(C(C)(CO)CO)CC2)c1` [Compound 311, 2-[4-[3-[[1-(3,5-difluorophenyl)-1,2,4-triazol-3-yl]amino]-5-methyl-phenyl]piperazin-1-yl]-2-methyl-propane-1,3-diol], the fold induction at 1 µM is not above 1 and the fold induction at 10 µM is not above 1.
In the case of `Cc1cc(Nc2ncn(-c3cc(C)nc(C)n3)n2)cc(N2CCN(C3COC3)CC2)c1` [Compound 312, 1-(2,6-dimethylpyrimidin-4-yl)-N-[3-methyl-5-[4-(oxetan-3-yl)piperazin-1-yl]phenyl]-1,2,4-triazol-3-amine], the fold induction at 1 µM lay within 1 to 10 and the fold induction at 10 µM is 1 to 10.
For the molecule `Fc1cc(F)cc(-n2cnc(Nc3cc(C4COC4)cc(N4CCN(C5COC5)CC4)c3)n2)c1` [Compound 313, 1-(3,5-difluorophenyl)-N-[3-(oxetan-3-yl)-5-[4-(oxetan-3-yl)piperazin-1-yl]phenyl]-1,2,4-triazol-3-amine], the fold induction at 1 µM is 1 to 10 and the fold induction at 10 µM was 100 to 1000.
The like results for `CCc1cc(Nc2ncn(-c3ccnc(OC)n3)n2)cc(N2CCN(C3COC3)CC2)c1` [Compound 314, N-[3-ethyl-5-[4-(oxetan-3-yl)piperazin-1-yl]phenyl]-1-(2-methoxypyrimidin-4-yl)-1,2,4-triazol-3-amine] were, in that order, 10 to 100 and 10 to 100.
The like results for `C1=C(c2cc(Nc3ncn(-c4ccccc4)n3)cc(C3=CCOCC3)c2)CCOC1` [Compound 315, N-[3,5-bis(3,6-dihydro-2H-pyran-4-yl)phenyl]-1-phenyl-1,2,4-triazol-3-amine] were, in that order, 100 to 1000 and 100 to 1000.
For `Cc1cc(Nc2ncn(-c3ccccc3)n2)cc(C2CCCNC2)c1` (stereo not shown) [Compound 316, N-[3-methyl-5-(3-piperidyl)phenyl]-1-phenyl-1,2,4-triazol-3-amine], the fold induction at 1 µM lay in the range of 100 to 1000 and the fold induction at 10 µM was not above 1.
The like results for `Cc1cc(Nc2ncn(-c3ccc(F)c(F)c3)n2)cc(N2CCN(C)CC2)c1` [Compound 317, 1-(3,4-difluorophenyl)-N-[3-methyl-5-(4-methylpiperazin-1-yl)phenyl]-1,2,4-triazol-3-amine] were, in that order, 100 to 1000 and 10 to 100.
Regarding `Cc1cc(Nc2ncn(-c3cc(F)cc(N4CC[C@@H](C(C)(C)O)C4)c3)n2)cc(N2CCN(C3COC3)CC2)c1` [Compound 318, 2-[(3R)-1-[3-fluoro-5-[3-[3-methyl-5-[4-(oxetan-3-yl)piperazin-1-yl]anilino]-1,2,4-triazol-1-yl]phenyl]pyrrolidin-3-yl]propan-2-ol], the fold induction at 1 µM lay within 10 to 100 and the fold induction at 10 µM is not above 1.
Taken in the same sequence, the figures for `c1ccc(-n2cnc(Nc3cc(N4CCOCC4)nc(N4CCOCC4)c3)n2)cc1` [Compound 319, 2,6-dimorpholino-N-(1-phenyl-1,2,4-triazol-3-yl)pyridin-4-amine] were 1 to 10 and not above 1.
With `Cc1cc(Nc2ncn(-c3cncc(F)c3)n2)cc(N2CCCC2)c1` [Compound 320, 1-(5-fluoro-3-pyridyl)-N-(3-methyl-5-pyrrolidin-1-yl-phenyl)-1,2,4-triazol-3-amine], the fold induction at 1 µM was in the range of 10 to 100 and the fold induction at 10 µM is 100 to 1000.
In the case of `Fc1cc(Nc2ncn(-c3ccc(F)cc3F)n2)cc(N2CCOCC2)c1` [Compound 321, 1-(2,4-difluorophenyl)-N-(3-fluoro-5-morpholino-phenyl)-1,2,4-triazol-3-amine], the fold induction at 1 µM is 1 to 10 and the fold induction at 10 µM was not above 1.
In the case of `CCc1cc(Nc2ncn(-c3ccc(C(F)(F)F)cc3)n2)cc(N2CCN(C3COC3)CC2)c1` [Compound 322, N-[3-ethyl-5-[4-(oxetan-3-yl)piperazin-1-yl]phenyl]-1-[4-(trifluoromethyl)phenyl]-1,2,4-triazol-3-amine], the fold induction at 1 µM is 1 to 10 and the fold induction at 10 µM was in the range of 1 to 10.
As for `Cc1cc(Nc2ncn(-c3cc(C)cc(F)c3)n2)cc(N2CCN(C3COC3)CC2)c1` [Compound 323, 1-(3-fluoro-5-methyl-phenyl)-N-[3-methyl-5-[4-(oxetan-3-yl)piperazin-1-yl]phenyl]-1,2,4-triazol-3-amine], the fold induction at 1 µM lay in the range of 1000 to 10000 and the fold induction at 10 µM fell in the range of 100 to 1000.
Take `Cc1cc(Nc2ncn(-c3cc(F)cc(F)c3)n2)cc(N2CCC(N3CCOCC3)CC2)c1` [Compound 324, 1-(3,5-difluorophenyl)-N-[3-methyl-5-(4-morpholino-1-piperidyl)phenyl]-1,2,4-triazol-3-amine]: the fold induction at 1 µM lay in the range of 1 to 10 and the fold induction at 10 µM was 10 to 100.
Take `COCC1CN(c2cc(C)cc(Nc3ncn(-c4cc(F)cc(F)c4)n3)c2)CCO1` (stereo not shown) [Compound 325, 1-(3,5-difluorophenyl)-N-[3-[2-(methoxymethyl)morpholin-4-yl]-5-methyl-phenyl]-1,2,4-triazol-3-amine]: the fold induction at 1 µM fell in the range of 10 to 100 and the fold induction at 10 µM lay in the range of 10 to 100.
For `Cc1cc(Nc2ncn(-c3ccccc3)n2)cc(N2CCN(C(C)C)CC2)c1` [Compound 326, N-[3-(4-isopropylpiperazin-1-yl)-5-methyl-phenyl]-1-phenyl-1,2,4-triazol-3-amine], the fold induction at 1 µM was 1000 to 10000 and the fold induction at 10 µM is not above 1.
Take `Fc1ccc(-n2cnc(Nc3cc(C4CC4)nc(N4CCCCC4)c3)n2)cc1F` [Compound 327, 2-cyclopropyl-N-[1-(3,4-difluorophenyl)-1,2,4-triazol-3-yl]-6-(1-piperidyl)pyridin-4-amine]: the fold induction at 1 µM was 100 to 1000 and the fold induction at 10 µM lay within 100 to 1000.
Regarding `Cc1cc(Nc2ncn(-c3cc(F)cc(F)c3)n2)cc(C2CCCN(C)C2)c1` (stereo not shown) [Compound 328, 1-(3,5-difluorophenyl)-N-[3-methyl-5-(1-methyl-3-piperidyl)phenyl]-1,2,4-triazol-3-amine], the fold induction at 1 µM was 100 to 1000 and the fold induction at 10 µM is 100 to 1000.
On to `Cc1cc(Nc2ncn(-c3cc(F)cc(F)n3)n2)cc(N2CCN(C3COC3)CC2)c1` [Compound 329, 1-(4,6-difluoro-2-pyridyl)-N-[3-methyl-5-[4-(oxetan-3-yl)piperazin-1-yl]phenyl]-1,2,4-triazol-3-amine], for which the fold induction at 1 µM was in the range of 1 to 10 and the fold induction at 10 µM was in the range of 10 to 100.
